Laboratory results: the NIST ThermoML archive (doi:10.1021/je049818g)

Conditions: Liquid, Hot wire method

CCCCOCCO [2-butoxyethan-1-ol]
Conditions | thermal conductivity [W/m/K]
283.96 K | 0.1381
293.67 K | 0.1365
303.56 K | 0.135
314.25 K | 0.1333
323.88 K | 0.1319
333.98 K | 0.1305
344.05 K | 0.129
354.63 K | 0.1272
363.59 K | 0.1258
373.84 K | 0.1241

CCC(C)=O [butanone]
Conditions | thermal conductivity [W/m/K]
284.48 K | 0.1501
294.42 K | 0.1481
305.02 K | 0.1459
314.26 K | 0.1435
323.96 K | 0.1414
334.71 K | 0.139
344.54 K | 0.1362
354.33 K | 0.1334
364.46 K | 0.1308
374.56 K | 0.1284

COC [dimethyl ether]
Conditions | thermal conductivity [W/m/K]
229.67 K | 0.1832
244.98 K | 0.1762
254.6 K | 0.1701
271.55 K | 0.1605
281.76 K | 0.1537
291.33 K | 0.1485

Cc1ccccc1 [toluene]
Conditions | thermal conductivity [W/m/K]
234.6 K | 0.1477
254.58 K | 0.1434
273.17 K | 0.1374
293.23 K | 0.1334
314.68 K | 0.1264
334.99 K | 0.1211
354.89 K | 0.1136
373.92 K | 0.1105
